Data set [1] concerns A549. Briefly: Induction of apoptosis in human A549 cells assessed as DNA fragmentation at 15 uM after 12 to 24 hrs by TUNEL assay. It counts as functional, cell-based.
The test system of data set [2] is A549. Put plainly: Cytotoxicity against human A549 cells assessed as necrotic cells at 15 uM after 12 to 24 hrs by AO/EB staining-based fluorescence microscopic analysis. In kind it is cell-based. Particulars: a549, 15 µM.
Data set [3] deals with A549. Briefly: Induction of apoptosis in human A549 cells assessed as necrotic/late apoptotic cells at 20 uM after 12 hrs by Annexin V-propidium iodide staining-based FACS flow cytometric analysis (reference value: 0.4%). In kind it is functional.
In data set [4] the test system is A549. Briefly: Induction of apoptosis in human A549 cells assessed as early apoptotic cells at 20 uM after 12 hrs by Annexin V-propidium iodide staining-based FACS flow cytometric analysis (reference value: 0.2%). It counts as functional.
The subject of the next data set is SK-OV-3. Put plainly: Cytotoxicity against human SKOV3 cells after 3 days by MTT assay. In kind it is functional, cell-based. Particulars: SK-OV-3, 72 h.
Data set [5] deals with A549. Put plainly: Induction of apoptosis in human A549 cells assessed as pycnosis at 15 uM after 12 to 24 hrs by AO/EB staining-based fluorescence microscopic analysis. It counts as functional, cell-based.
The test system of a further data set is NCI-H460. Put plainly: Cytotoxicity against human NCI-H460 cells after 3 days by MTT assay. In kind it is functional, cell-based. Particulars: NCI-H460, 72 h.
Data set [6] relates to A549. Put plainly: Induction of apoptosis in human A549 cells assessed as membrane blebbing at 15 uM after 12 to 24 hrs by AO/EB staining-based fluorescence microscopic analysis. In kind it is functional, cell-based.
Data set [7] relates to A549. Briefly: Induction of apoptosis in human A549 cells at 15 uM after 12 to 24 hrs by Hoechst 33258 staining-based fluorescence microscopic analysis. In kind it is functional, cell-based.
Data set [8] has as its system A549. Put plainly: Induction of apoptosis in human A549 cells assessed as necrotic/late apoptotic cells at 25 uM after 12 hrs by Annexin V-propidium iodide staining-based FACS flow cytometric analysis (reference value: 0.4%). In kind it is functional. On the technique in general: Flow cytometry measures light scatter and fluorescence of single cells or particles in a stream.

Data set [9] deals with A549. Briefly: Induction of apoptosis in human A549 cells after 12 hrs by Annexin V-propidium iodide staining-based FACS flow cytometric analysis. It counts as functional, cell-based.
A further data set deals with HepG2. Briefly: Cytotoxicity against human HepG2 cells after 3 days by MTT assay. It counts as functional, cell-based. Conditions: HepG2, 72 h.
The test system of data set [10] is A549. Put plainly: Induction of apoptosis in human A549 cells assessed as DNA ladder formation at 10 to 30 uM by agarose gel electrophoresis. It counts as functional, cell-based.
Data set [11] concerns A549. Put plainly: Induction of apoptosis in human A549 cells assessed as decrease in mitochondrial membrane potential at 15 uM after 12 to 24 hrs by JC-1 staining-based fluorescence microscopic analysis. In kind it is functional, cell-based.
Data set [12] deals with A549. Put plainly: Cytotoxicity against human A549 cells after 3 days by MTT assay. In kind it is functional, cell-based. Particulars: A549, 72 h. (In general: Formazan colour is commonly taken as a measure of viable cells.)
In data set [13] the test system is A549. Put plainly: Induction of apoptosis in human A549 cells assessed as cell budding at 15 uM after 12 to 24 hrs by AO/EB staining-based fluorescence microscopic analysis. It counts as functional.
For data set [14], the system named is A549. Briefly: Induction of apoptosis in human A549 cells assessed as early apoptotic cells at 25 uM after 12 hrs by Annexin V-propidium iodide staining-based FACS flow cytometric analysis (reference value: 0.2%). In kind it is functional.

Calls of active or inactive are those of the source. No cut-off for these calls is given here.

One may read the IC50 as the concentration at which inhibition is half-maximal. Turning to `CCOP(=O)(OCC)C(NC(=S)NC(=O)[C@]1(C)CCC[C@]2(C)c3ccc(C(C)C)cc3/C(=N\O)C[C@@H]12)c1ccc(F)cc1` (some centres not stated), the outcome in the data set on A549 [1], in the data set with A549 [5], in the data set on A549 [6], in the data set with A549 [7], with A549 [10] and with A549 [11] was Active. The outcome with A549 [13] was Active. Further, the Activity result is “Non-toxic” in the data set on A549 [2]; 5.3% in the data set with A549 [3]; 14.4% with A549 [4]; 17.7% in the data set on A549 [8]; “Dose-dependent effect” in the data set with A549 [9]; 34% with A549 [14]. For the same molecule, the IC50 with SK-OV-3 amounted to 11.4 µM; in the data set on NCI-H460, 17.7 µM; with HepG2, 13.1 µM; with A549 [12] it was 7 µM.
